Experimental data reported in paper PMC12494831, “Discovery of new pyridine 3-carboxylic acid-based pharmacophores as dual anti-inflammatory and anti-hyperglycemic agents” (Scientific Reports, 2025).

Legend:
[1] = ABTS cation radical scavenging (734 nm); conditions: for IC50: read-out: ABTS IC50±SD
Procedure: (§1) The experimental method principle relies on the degradation of the purple color of the DPPH radical and the blue color reduction of the ABTS cation radical. This is due to consuming the electron or hydrogen radical from the antioxidant (A-H). Both assays were measured at 517 nm and 734 nm, respectively. The distinction of color changes illustrates the potential scavenging activity of the inhibitor molecules in terms of hydrogen-donating proficiency. From this, we can conclude the anti-oxidant efficacy.
In brief, 7.0 mM ABTS in H2O and 2.5 mM potassium persulfate (1:1) were shaken well to generate ABTS cation radicals and kept in the dark at RT for 15–20 h before it is used for the experiment. After, the radical was mixed with the synthesized molecules at different concentrations (20 µM to 100 µM). The resultant solution was measured for absorbance at 734 nm. Ascorbic acid is the positive control for this experiment.1 [drawing 1]

[2] = system: RAW macrophage cells (RAW 264.7); assay: MTT cell viability assay; type: cell-based; conditions: for MTT assay Average OD: control average OD 0.924
Procedure: (§2) The toxicity of the molecule was investigated by the MTT cell viability assay employing RAW macrophage cells. For this study, two lead compounds, 2b and 2e, were screened based on the in vitro results. […] (The OD values in Tables S6 and S7)
(§3) The MTT ((3-(4,5-Dimethylthiazol-2-yl)-2,5-Diphenyltetrazolium Bromide)) assay was employed to determine viability for the synthesized potent compounds 2b and 2e; the cell viability results portray the compounds’ cytotoxicity. The assay was conducted on RAW macrophage cells (RAW 264.7) with various dilutions of 2b and 2e (10, 20, 30, 40, and 50 µM). The results were confirmed with a control.

[3] = DPPH radical scavenging (517 nm); conditions: for IC50: read-out: DPPH IC50±SD
Procedure: as §1
Methanolic DPPH solution (0.15 mM) was prepared, and 1.0 mL of DPPH solution was mixed with 3.0 mL of synthesized molecules at different concentrations (20 µM to 100 µM). The mixture was constantly swirled and stored RT for 30 min, followed by absorbance measurement at 517 nm.

[4] = system: human RBC; assay: Anti-inflammatory activity: hypotonic solution-induced human RBC hemolysis (560 nm); type: cell-based; conditions: for IC50: induced human RBC hemolysis, read-out: Inflammatory IC50±SD
Procedure: All synthesized compounds are validated in human RBC (blood sample); the blood sample was collected from a healthy volunteer in an EDTA tube. The EDTA tube further proceeded with centrifugation at 3000 rpm for 30 min. A supernatant (which contains plasma and leucocytes) solution was isolated, and the obtained RBC (red blood cells) was further treated with Alsever’s reagent. Alsever’s reagent was prepared as follows: sodium citrate (0.8 g, 2.6 mmol), dextrose (2 g, 11.0 mmol), citric acid (0.050 g, […]), and sodium chloride (0.42 g, 7.0 mmol) were solubilized in 100 mL of distilled water. The above mixture was centrifuged for 30 min at 3000 rpm. Then, colloidal blood cells were separated, carefully transferred, and washed with 0.85% of the isosaline solution; this process continued until a clear solution appeared. Employing coagulated RBC and generated human erythrocyte hemolysis, the anti-inflammatory activity and potential of the synthesized entities were evaluated. The tested compounds are prepared at different concentrations for the inhibition activity of inflammation, along with 100 µL of a purified RBC sample utilized. All characterized samples were followed by adding 5.0 mL of trisodium phosphate (10 mM) and 5.0 mL of sodium chloride (5.0 mM) buffer solutions. After the addition of the above mixtures, the test samples are incubated for 15 min at room temperature with RBC and hypotonic mixtures. After incubation, the mixture was centrifuged at 3000 rpm for 15 min. The final supernatant liquid solution was measured at 560 nm using a UV-visible spectrophotometer.3 [drawing 3]

[5] = molecular target: T1, α-amylase (EC.3.2.1.1) (Homo sapiens, UniProt P04746); assay: In vitro α-amylase inhibition (starch/DNS, 540 nm); type: biochemical
T1 sequence (P04746 16-511): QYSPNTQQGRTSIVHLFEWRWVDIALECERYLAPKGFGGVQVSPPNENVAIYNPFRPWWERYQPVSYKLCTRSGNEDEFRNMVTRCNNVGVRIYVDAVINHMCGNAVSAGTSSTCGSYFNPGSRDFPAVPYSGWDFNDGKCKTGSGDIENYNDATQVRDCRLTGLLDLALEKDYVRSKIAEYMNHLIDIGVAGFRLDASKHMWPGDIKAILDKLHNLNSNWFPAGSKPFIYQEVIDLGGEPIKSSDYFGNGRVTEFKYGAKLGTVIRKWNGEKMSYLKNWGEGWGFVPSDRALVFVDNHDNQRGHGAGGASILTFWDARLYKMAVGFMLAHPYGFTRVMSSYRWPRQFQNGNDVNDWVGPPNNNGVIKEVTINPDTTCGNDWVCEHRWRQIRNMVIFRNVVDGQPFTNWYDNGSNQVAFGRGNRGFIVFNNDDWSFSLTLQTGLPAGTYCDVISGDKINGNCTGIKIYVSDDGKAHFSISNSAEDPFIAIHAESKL
Procedure: α-Amylase enzyme and other chemical reagents are used for enzyme inhibitory activity. The characterized compounds are diluted in an analytical grad solvent (DMSO) system at 1 mg/mL solution concentration. The activity reaction of the synthesized analogues on the enzyme was treated at final concentrations of 2 to 10 µg. In the interaction between enzyme and compounds, 10 min incubation was maintained before the inhibitory activity started. The enzyme-receptor inhibition efficiency was calculated and compared with the positive control.
Sodium phosphate buffer 0.2 mM (pH 6.9 with 6 × 10^− 4 M NaCl) in 500 µL enzyme solution (0.5 mg/mL) was taken and incubated with test samples (2–10 µg/mL) at room temperature for 10 min. A starch (1%) solution of 500 µL with phosphate buffer was added to all test inhibitor samples; further, the tubes were incubated for 10 min at 28 °C. The reaction test tubes were incubated for another 5 min in the water bath (100 °C) after the addition of the color reagent dinitro salicylic acid and cooled at room temperature until reached. Finally, 10 mL of distilled water was mixed with each test tube, and the colored mixture was measured at a fixed wavelength of 540 nm. The absorbance without sample solution (blank) and control (buffer and standard drug sample) was measured at 540 nm. The α-amylase inhibition efficiency was validated using the following equation:2 [drawing 2]

[6] = MTT cell viability assay; type: cell-based; conditions: mouse, RAW 264.7 macrophage cells, control 100
Procedure: as §2, §3

Row | Compound | ABTS Inhibition % ([1]; 20 µM) [%] | ABTS Inhibition % ([1]; 40 µM) [%] | ABTS Inhibition % ([1]; 60 µM) [%] | ABTS Inhibition % ([1]; 80 µM) [%] | ABTS Inhibition % ([1]; 100 µM) [%] | IC50 [1] [µM] | DPPH Inhibition % ([3]; 20 µM) [%] | DPPH Inhibition % ([3]; 40 µM) [%] | DPPH Inhibition % ([3]; 60 µM) [%] | DPPH Inhibition % ([3]; 80 µM) [%] | DPPH Inhibition % ([3]; 100 µM) [%] | IC50 [3] [µM] | inhibition at 20 µM [4] [%] | inhibition at 40 µM [4] [%] | inhibition at 60 µM [4] [%] | inhibition at 80 µM [4] [%] | inhibition at 100 µM [4] [%] | IC50 [4] [µM] | further results
1 | COC(=O)/C=C/c1ccc(OC)c(OC(=O)c2cccnc2)c1 [Compound 2c, 2-Methoxy-5-(3-methoxy-3-oxoprop-1-en-1-yl) phenyl nicotinate] | 58 | 59.7 | 59.8 | 60 | 60 | 20.57 ± 0.13 | 32 | 34.9 | 36.1 | 48 | 51.9 | 93.69 ± 0.26 | 48 | 52.9 | 62.5 | 77 | 86 | 27.65 ± 0.2 | MTT assay Triplicate values OD1 ([2]; 10 µM): 0.824; MTT assay Triplicate values OD2 ([2]; 10 µM): 0.826; MTT assay Triplicate values OD3 ([2]; 10 µM): 0.819; MTT assay Average OD ([2]; 10 µM): 0.823; MTT assay Triplicate values OD1 ([2]; 20 µM): 0.754; MTT assay Triplicate values OD2 ([2]; 20 µM): 0.753; MTT assay Triplicate values OD3 ([2]; 20 µM): 0.758; MTT assay Average OD ([2]; 20 µM): 0.755; MTT assay Triplicate values OD1 ([2]; 30 µM): 0.689; MTT assay Triplicate values OD2 ([2]; 30 µM): 0.695; MTT assay Triplicate values OD3 ([2]; 30 µM): 0.692; MTT assay Average OD ([2]; 30 µM): 0.692; MTT assay Triplicate values OD1 ([2]; 40 µM): 0.596; MTT assay Triplicate values OD2 ([2]; 40 µM): 0.604; MTT assay Triplicate values OD3 ([2]; 40 µM): 0.606; MTT assay Average OD ([2]; 40 µM): 0.602; MTT assay Triplicate values OD1 ([2]; 50 µM): 0.520; MTT assay Triplicate values OD2 ([2]; 50 µM): 0.525; MTT assay Triplicate values OD3 ([2]; 50 µM): 0.518; MTT assay Average OD ([2]; 50 µM): 0.521
2 | O=C(NCc1ccc2c(c1)OCO2)c1cccnc1 [Compound 2e, N-(Benzo[1,3]dioxol-5-ylmethyl)nicotinamide] | 23.4 | 27.9 | 29.3 | 35.4 | 43 | 45.63 ± 0.19 | 29.2 | 47.1 | 49.2 | 55.8 | 59 | 52.09 ± 0.15 | 33.6 | 42.8 | 43 | 48.2 | 60 | 14.1 ± 0.15 | α-Amylase Inhibition % ([5]; 2 µg): 86.09%; α-Amylase Inhibition % ([5]; 4 µg): 77.3%; α-Amylase Inhibition % ([5]; 6 µg): 74.08%; α-Amylase Inhibition % ([5]; 8 µg): 72.76%; α-Amylase Inhibition % ([5]; 10 µg): 56.22%; IC50 ([5]; test concentrations 2-10 µg, read-out: α-Amylase IC50±SD (converted)): 5.17 µM; viability at 10 µM ([6]; 10 µM): 89.1%; viability at 20 µM ([6]; 20 µM): 81.7%; viability at 30 µM ([6]; 30 µM): 74.8%; viability at 40 µM ([6]; 40 µM): 65.1%; viability at 50 µM ([6]; 50 µM): 56.4%; Toxicity, outcome of the MTT cell viability assay (in words) ([2]; RAW macrophage cells): viable for the cell line
